Test results reported in patent publication US11090304B2 (Amgen Inc., priority 2018, dated 2021).
pIC50: −log10 of the molar value. Read-outs that look alike come from different tables or passages of the source.

Key:
[1] = target: GDP-bound KRAS protein (aa 1-169), containing both G12C and C118A amino acid substitutions (Homo sapiens, UniProt P01116, C118A/G12C); assay: Coupled nucleotide exchange assay (SOS-mediated, AlphaScreen); format: biochemical; conditions: 5 min compound pre-incubation
[2] = test system: Phosphorylation of ERK1/2 in MIA PaCa-2 cells; assay: Phospho-ERK1/2 MSD assay in MIA PaCa-2 cells; format: cell-based; conditions: read-out: p-ERK IC50 (2 h; MIA PaCa-2), 2 h compound treatment
Summary of the method: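 Following a 2 or 4 h incubation with titrated compound, cells receive a 10 min pulse of 10 ng/mL EGF. Phospho-ERK1/2 in RIPA lysates is then quantified by MSD immunoassay, and IC50 values come from a four-parameter logistic model.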

Sequence of GDP-bound KRAS protein (aa 1-169), containing both G12C and C118A amino acid substitutions (P01116 1-169 isoform P01116-2 G12C/C118A): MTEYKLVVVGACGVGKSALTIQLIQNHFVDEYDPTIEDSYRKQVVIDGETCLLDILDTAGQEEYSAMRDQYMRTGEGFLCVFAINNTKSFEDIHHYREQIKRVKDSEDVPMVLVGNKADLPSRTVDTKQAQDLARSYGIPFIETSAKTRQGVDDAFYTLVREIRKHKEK

Coupled exchange IC50 (5 min) [1]	pIC50 [2]	pIC50 ([2]; Homo sapiens, MIA PaCa-2, 2 h)	SMILES
0.041 | nda μM	6.29		C=CC(=O)N1CCN(c2nc(=O)n(-c3c(C)ccnc3C(C)C)c3nc(-c4cc(O)cc(Cl)c4Cl)c(F)cc23)[C@@H](C)C1 (single isomer, unassigned) [Example 58-7-2]
0.311 | nda μM		6.22	C=CC(=O)N1CCN(c2nc(=O)n(-c3c(C)cccc3C(C)C)c3nc(-c4c(O)cccc4F)c(F)cc23)C[C@H]1C (single isomer, unassigned) [Example 63-2]
3.163 | nda μM	5.68		C=CC(=O)N1CCN(c2nc(=O)n(-c3ccccc3C(C)C)c3nc(-c4c(O)cccc4F)c(F)cc23)[C@@H](C)C1 (single isomer, unassigned) [Example 57-6-1]
0.026 | nda μM		8.00	C=CC(=O)N1C[C@H](C)N(c2nc(=O)n(-c3c(C)ccnc3C(C)C)c3nc(-c4ccccc4F)c(Cl)cc23)[C@@H](C)C1 (single isomer, unassigned) [Example 78-8]
0.062 | nda μM		7.11	C=CC(=O)N1CCN(c2nc(=O)n(-c3ncccc3C(C)C)c3cc(-c4ccccc4F)c(Cl)cc23)[C@@H](C)C1 [Example 104, 6-Chloro-7-(2-fluorophenyl)-4-((2S)-2-methyl-4-(2-propenoyl)-1-piperazinyl)-1-(3-(2-propanyl)-2-pyridinyl)-2(1H)-quinazolinone]
0.574 | nda μM		5.84	C=CC(=O)N1CCN(c2nc(=O)n(-c3c(C)cccc3C(C)(C)C)c3nc(-c4c(O)cccc4F)c(F)cc23)[C@@H](C)C1 [Example 57-17, 6-fluoro-7-(2-fluoro-6-hydroxyphenyl)-1-(2-methyl-6-(2-methyl-2-propanyl)phenyl)-4-((2S)-2-methyl-4-(2-propenoyl)-1-piperazinyl)pyrido[2,3-d]pyrimidin-2(1H)-one]
0.445 | nda μM		6.36	C=CC(=O)N1CCN(c2nc(=O)n(-c3c(C)ccnc3C(C)C)c3nc(-c4ccc(F)cc4F)c(F)cc23)[C@@H](C)C1 [Example 58-10, 7-(2,4-difluorophenyl)-6-fluoro-1-(4-methyl-2-(2-propanyl)-3-pyridinyl)-4-((2S)-2-methyl-4-(2-propenoyl)-1-piperazinyl)pyrido[2,3-d]pyrimidin-2(1H)-one]
0.5 | nda μM		5.75	C=CC(=O)N1CCN(c2nc(=O)n(-c3c(C)cc(O)nc3C(C)C)c3nc(-c4ccccc4F)c(Cl)cc23)[C@@H](C)C1 [Example 137, 6-chloro-7-(2-fluorophenyl)-1-(4-methyl-6-oxo-2-(2-propanyl)-1,6-dihydro-3-pyridinyl)-4-((2S)-2-methyl-4-(2-propenoyl)-1-piperazinyl)pyrido[2,3-d]pyrimidin-2(1H)-one]
0.335 | nda μM	5.74		C=CC(=O)N1CCN(c2nc(=O)n(-c3c(C)ccnc3C(C)C)c3nc(-c4cc(O)cc(Cl)c4Cl)c(F)cc23)[C@@H](C)C1 (single isomer, unassigned) [Example 58-7-1]
0.417 | nda μM		6.10	C=CC(=O)N1CCN(c2nc(=O)n(-c3n[nH]cc3C(C)C)c3nc(-c4ccccc4F)c(Cl)cc23)[C@@H](C)C1 [Example 54-111, 6-chloro-7-(2-fluorophenyl)-4-((2S)-2-methyl-4-(2-propenoyl)-1-piperazinyl)-1-(4-(2-propanyl)-1H-pyrazol-3-yl)pyrido[2,3-d]pyrimidin-2(1H)-one]
0.025 | nda μM	7.42		C=CC(=O)N1CCN(c2nc(=O)n(-c3c(OC)cccc3C(C)C)c3nc(-c4c(O)cccc4F)c(Cl)cc23)[C@@H](C)C1 (single isomer, unassigned) [Example 54-73-1]
0.124 | nda μM		7.21	C=CC(=O)N1CCN(c2nc(=O)n(-c3c(C)ccnc3C(C)C)c3nc(-c4ccccc4F)c(Cl)cc23)CC1 (single isomer, unassigned) [Example 78-15, (M)-6-chloro-7-(2-fluorophenyl)-1-(4-methyl-2-(2-propanyl)-3-pyridinyl)-4-(4-(2-propenoyl)-1-piperazinyl)pyrido[2,3-d]pyrimidin-2(1H)-one]
0.023 | nda μM		7.77	C=CC(=O)N1C[C@@H](C)N(c2nc(=O)n(-c3c(C)ccnc3C(C)C)c3nc(-c4c(O)cccc4F)c(Cl)cc23)[C@@H](C)C1 (atropisomer, axis not shown; (M)) [Example 73-13, (M)-6-chloro-4-(cis-2,6-dimethyl-4-(2-propenoyl)-1-piperazinyl)-7-(2-fluoro-6-hydroxyphenyl)-1-(4-methyl-2-(2-propanyl)-3-pyridinyl)pyrido[2,3-d]pyrimidin-2(1H)-one]
0.932 | nda μM		6.18	C=CC(=O)N1CCN(c2nc(=O)n(-c3nccnc3C3CC3)c3nc(-c4c(O)cccc4F)c(F)cc23)[C@@H](C)C1 [Example 59-6, 1-(3-cyclopropyl-2-pyrazinyl)-6-fluoro-7-(2-fluoro-6-hydroxyphenyl)-4-((2S)-2-methyl-4-(2-propenoyl)-1-piperazinyl)pyrido[2,3-d]pyrimidin-2(1H)-one]
0.947 | nda μM		6.00	C=CC(=O)N1CCN(c2nc(=O)n(-c3c(C)cccc3C(C)C)c3nc(-c4c(C)ccc5[nH]ncc45)c(F)cc23)[C@@H](C)C1 [68-2, 6-fluoro-7-(5-methyl-1H-indazol-4-yl)-1-(2-methyl-6-(2-propanyl)phenyl)-4-((2S)-2-methyl-4-(2-propenoyl)-1-piperazinyl)pyrido[2,3-d]pyrimidin-2(1H)-one]
0.149 | nda μM		6.80	C=CC(=O)N1CCN(c2nc(=O)n(-c3ccncc3C(C)C)c3nc(-c4c(O)cccc4F)c(Cl)cc23)[C@@H](C)C1 [Example 54-36, 6-chloro-7-(2-fluoro-6-hydroxy-phenyl)-4-((2S)-2-methyl-4-(2-propenoyl)-1-piperazinyl)-1-(3-(2-propanyl)-4-pyridinyl) pyrido[2,3-d]pyrimidin-2(1H)-one]
0.078 | nda μM		7.09	C=CC(=O)N1CCN(c2nc(=O)n(-c3c(C)ncnc3C(C)C)c3nc(-c4cc(C)ccc4F)c(Cl)cc23)[C@@H](C)C1 (single isomer, unassigned) [Example 55-40-2]
0.395 | nda μM		6.74	C=CC(=O)N1CCN(c2nc(=O)n(-c3c(C)ccnc3C(C)C)c3nc(-c4ccccc4F)c(F)cc23)[C@@H](C)C1 [Example 58-4, 6-fluoro-7-(2-fluorophenyl)-1-(4-methyl-2-(2-propanyl)-3-pyridinyl)-4-((2S)-2-methyl-4-(2-propenoyl)-1-piperazinyl)pyrido[2,3-d]pyrimidin-2(1H)-one]
0.022 | nda μM		7.49	C=CC(=O)N1CCN(c2nc(=O)n(-c3c(CO)cccc3C(C)C)c3nc(-c4ccccc4F)c(Cl)cc23)[C@@H](C)C1 (single isomer, unassigned) [Example 55-43-2]
0.24 | nda μM		6.58	C=CC(=O)N1CCN(c2nc(=O)n(-c3scnc3C(C)C)c3nc(-c4c(O)cccc4F)c(F)cc23)[C@@H](C)C1 [Example 57-11, 6-fluoro-7-(2-fluoro-6-hydroxyphenyl)-4-((2S)-2-methyl-4-(2-propenoyl)-1-piperazinyl)-1-(4-(2-propanyl)-1,3-thiazol-5-yl)pyrido[2,3-d]pyrimidin-2(1H)-one]
0.951 | nda μM		6.21	C=CC(=O)N1CCN(c2nc(=O)n(-c3ccccc3C(C)C)c3nc(-c4ccccc4F)c(C)cc23)[C@@H](C)C1 [Example 74-1, 7-(2-Fluorophenyl)-6-methyl-4-((2S)-2-methyl-4-(2-propenoyl)-1-piperazinyl)-1-(2-(2-propanyl)phenyl)pyrido[2,3-d]pyrimidin-2(1H)-one]
0.949 | nda μM	6.16		C=CC(=O)N1CCN(c2nc(=O)n(-c3ccccc3C3CCC3)c3nc(-c4ccccc4F)c(Cl)cc23)[C@@H](C)C1 (single isomer, unassigned) [Example 54-12-2]
0.515 | nda μM		6.46	C=CC(=O)N1CCN(c2nc(=O)n(-c3c(C)ccnc3C(C)C)c3nc(-c4ccccc4F)c(Cl)cc23)C(C(F)(F)F)C1 (single isomer, unassigned) [Example 78-9, (M)-6-chloro-7-(2-fluorophenyl)-1-(4-methyl-2-(2-propanyl)-3-pyridinyl)-4-(4-(2-propenoyl)-2-(trifluoromethyl)-1-piperazinyl)pyrido[2,3-d]pyrimidin-2(1H)-one]
0.021 | nda μM	7.48		C=CC(=O)N1CCN(c2nc(=O)n(-c3ccccc3C(C)C)c3nc(-c4cc(O)cc(Cl)c4Cl)c(Cl)cc23)[C@@H](C)C1 (single isomer, unassigned) [Example 54-91-1]
0.633 | nda μM	6.25		C=CC(=O)N1CCN(c2nc(=O)n(-c3ccccc3C(C)C)c3nc(-c4cc(O)ccc4Cl)c(Cl)cc23)[C@@H](C)C1 (single isomer, unassigned) [Example 54-90-2]

SMILES	Coupled exchange IC50 (5 min) [1]	pIC50 [2]	pIC50 ([2]; Homo sapiens, MIA PaCa-2, 2 h)
C=CC(=O)N1[C@@H]2CCC[C@H]1CN(c1nc(=O)n(-c3c(C)ccnc3C(C)C)c3nc(-c4ccccc4F)c(Cl)cc13)C2 (single isomer, unassigned) [Example 78-2, (M)-6-chloro-7-(2-fluorophenyl)-1-(4-methyl-2-(2-propanyl)-3-pyridinyl)-4-(9-(2-propenoyl)-3,9-diazabicyclo[3.3.1]nonan-3-yl)pyrido[2,3-d]pyrimidin-2(1H)-one]	0.436 | nda μM		6.42
